# Measurements from PMC8603350, “A Remote Secondary Binding Pocket Promotes Heteromultivalent Targeting of DC-SIGN” (Journal of the American Chemical Society, 2021).
# Numbering of substitutions follows the chain as printed. Entries after “also recorded” stand apart in the source; their conditions may differ.
# Key:
# DC-SIGN CRD = molecular target: T1, DC-SIGN CRD (Homo sapiens, UniProt Q9NNX6); test: 15N HSQC NMR titration; type: binding; settings: 10 mM CaCl2, MES pH 6.0
# T1 construct: His-tagged DC-SIGN CRD wild-type as well as the M270F mutant; His-tag; made in house; host or cells: E. coli BL21(DE3), pET28a; gene from GenScript
# T1 sequence (Q9NNX6 263-378 limits assumed): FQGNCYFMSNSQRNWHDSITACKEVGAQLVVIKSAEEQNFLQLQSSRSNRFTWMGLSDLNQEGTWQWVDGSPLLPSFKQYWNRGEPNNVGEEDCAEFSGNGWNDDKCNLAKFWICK
# DC-SIGN ECD [1] = molecular target: T2, DC-SIGN ECD (Homo sapiens, UniProt Q9NNX6); test: KD determination from 19F NMR CSPs; type: binding; settings: direct observation of CF3 chemical shift; read-out: KD (19F CSP)
# T2 construct: DC-SIGN extracellular domain (ECD); made in house; host or cells: E. coli BL21(DE3), pET30b; gene from GenScript
# T2 sequence (Q9NNX6 59-404 limits assumed): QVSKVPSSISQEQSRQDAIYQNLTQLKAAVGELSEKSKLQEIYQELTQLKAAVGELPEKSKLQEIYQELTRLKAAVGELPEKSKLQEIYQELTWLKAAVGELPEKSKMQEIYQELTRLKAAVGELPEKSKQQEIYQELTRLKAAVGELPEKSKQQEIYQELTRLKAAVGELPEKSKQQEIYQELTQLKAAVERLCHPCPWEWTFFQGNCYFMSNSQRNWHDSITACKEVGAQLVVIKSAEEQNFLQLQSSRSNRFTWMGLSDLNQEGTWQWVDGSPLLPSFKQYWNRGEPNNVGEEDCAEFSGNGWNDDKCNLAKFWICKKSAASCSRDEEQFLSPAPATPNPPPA
# DC-SIGN ECD [2] = molecular target: T2, DC-SIGN ECD; test: 19F NMR reporter displacement assay transferred to DC-SIGN ECD; type: binding; settings: 0.1 mM reporter 49; for 48 estimated, receptor precipitation above 1 mM
# DC-SIGN+ Raji cells = test: Liposome binding assay, flow cytometry; type: cell-based
# Protocol: If not stated otherwise, all media and supplements for cell culture experiments were purchased from Thermo Fisher Scientific. Raji, THP-1 and U937 cell lines (ATCC) were grown in complete growth medium containing RPMI1640 medium, 10% FCS, 100 U mL-1 Penicillin-Streptomycin and GlutaMax at 37°C and 5% CO2. Cells were monitored with a light microscope (IT40 5PH, VWR) and subcultured every 2 -3 days to maintain cell densities ranging from of 0.5 - 3 x 10^6 cells per mL.
# CLR-expressing cell lines were generated as described before.4,27 Briefly, DC-SIGN, Langerin, murine Langerin and murine Dectin-1 cDNAs (Sinobiologicals) were cloned into a lentiviral BIC-PGK-Zeo-T2a-mAmetrine:EF1A construct by Gibson assembly (NEB) according to the manufacturer’s protocol. HEK293 cells were transfected with the lentiviral vector together with third-generation packaging vectors and viral particles were then used for transduction of Raji cells. In analogy, DC-SIGN and Langerin-expressing THP-1 and U937 cell lines were generated by lentiviral transduction.
# Liposome binding assay – flow cytometry
# Liposome binding to CLR-expressing cells was assayed as previously described.27 Briefly, 0.05 x 10^6 cells were plated in transparent conical-bottom 96 well microtiter plates (Nunc) in a volume of 100 µL medium. Plates were centrifuged at 500 x g for 3 minutes, supernatant was aspirated, and cells were resuspended in 100 µL medium, containing 16 µM liposomes. In control experiments, cells were incubated with medium containing 10 mM EDTA or 50 µg mL-1 mannan for 15 min at 4 °C, prior to liposome application. After 1 h incubation at 4 °C in the dark, cells were centrifuged at 500 x g for 3 min and the supernatant was discarded. Cells wer e resuspended in 200 µL ice-cold medium and analyzed by detecting the co-formulated Alexa 647 dye via flow cytometry with a 654 nm laser and a 670/14 nm filter (Attune Nxt, life technologies).
# Flow cytometry data was processed using FlowJo (BD Bioscience). Mean fluorescence intensity (MFI) was further analyzed and plotted using GraphPad Prism (GraphPad […]
# To monitor allosteric activation of DC-SIGN by glycomimetic 48, the described protocol was adjusted as follows. DC-SIGN+ Raji cells were plated in transparent conical-bottom 96 well microtiter plates (Nunc) in a volume of 100 µL medium. Plates were centrifuged at 500 x g for 3 minutes, supernatant was aspirated, and cell were resuspended in 25 µL medium supplemented with varying concentrations of monovalent carbohydrates or 0.5 mM 48. Homomultivalent liposomes carrying either natural carbohydrates or 48 were added at a final concentration of 16 µM. Liposome binding was subsequently quantified by measuring Alexa 647 fluorescence in flow cytometry experiments. Statistical significance by means of a student’s t-test was assessed based on averaged normalized MFIs from four biological replicates each conducted as technical duplicates. A p-value < 0.05 was set as significance cut-off.
# DC-SIGN ECD [3] = molecular target: T2, DC-SIGN ECD; test: Direct 19F R2-filtered NMR binding experiments (CF3 resonance)
# Protocol: KI values were determined as previously described for Langerin and the DC-SIGN CRD.6 Briefly, competitive binding experiments were conducted with 49 at a concentration of 0.1 mM and varying competitor concentrations [I]T. KI and [P]T values were derived from Equation 8 in a two-parameter fit.
# R2,obs = R2,f + (R2,b − R2,f)pb […]
# θ = cos−1 ( ) ,a = KD + KI + [L]T + [I]T − [P]T
# b = ([I]T − [P]T)KD + ([L]T − [P]T)KD + KIKD, c = −KIKD[P]T
# KD determination from 19F NMR CSPs
# For KD determination from 19F NMR CSPs, samples and measurements were set up as described for 19F R2-filtered NMR but at a single relaxation time T = 0 s. CSP 19F, T were calculated from the chemical shift of the 19F resonance of 48 in the presence of protein δT at increasing ligand concentrations and the chemical shift in absence of protein δf at a concentration of 1 mM via Equation 4.
# The KD value was calculated from CSP19F, T values in a two -parameter fit using Equation 10, using a fixed protein concentration [P] T and a CSP19F of 0 ppm as a lower bound. CSP19F,b corresponds to the top asymptote and was kept variable. As in Equation 9, pb represents the fraction of bound protein.
# DC-SIGN CRD M270F = molecular target: T3, DC-SIGN CRD M270F (Homo sapiens, UniProt Q9NNX6, M270F); test: 15N HSQC NMR binding experiments with M270F mutant; settings: absence of Ca2+
# T3 construct: His-tagged DC-SIGN CRD wild-type as well as the M270F mutant; His-tag; made in house; host or cells: E. coli BL21(DE3), pET28a; gene from GenScript
# T3 sequence (Q9NNX6 263-378 M270F limits assumed): T1 sequence (Q9NNX6 263-378 limits assumed) with M8F
smiles,measurement,setting,value
NC[C@H]1O[C@H](Oc2ccc(-c3ccc(C(=O)O)cc3)cc2C(F)(F)F)[C@@H](O)[C@@H](O)[C@@H]1O [compound 48],Kd,DC-SIGN CRD,460 ± 160 µM
same,Kd,DC-SIGN ECD [1],370 ± 60 µM
same,Ki,DC-SIGN ECD [2],1150 ± 10 µM
same,effect of soluble compound on binding of Fuc-Lip liposomes,"DC-SIGN+ Raji cells; 0.5 mM soluble 48, liposomes with 2.5 mol % Fuc-Lip, p < 0.05, n = 4",significantly enhances; also recorded: significantly increased
same,binding of homomultivalent liposomes,"DC-SIGN+ Raji cells; 42-Lip up to 1.26%, 48 up to 1.66% total lipid concentration",does not show any binding
same,molar glycomimetic/Man ratio around which the cooperative binding effect saturates,DC-SIGN+ Raji cells; heteromultivalent liposomes with Man-Lip,~0.5
same,Kd,"DC-SIGN ECD [3]; direct observation of CF3 relaxation rate R2,obs",480 ± 100 µM
same,apparent KD values lower than the determined KI,DC-SIGN ECD [3]; direct-binding NMR KD vs RDA KI,about 3 fold
same,binding to M270F mutant,DC-SIGN CRD M270F,abrogation of 48-binding
